The values that follow come from ChEMBL document CHEMBL2331278, “Synthesis, pharmacological evaluation and QSAR modeling of mono-substituted 4-phenylpiperidines and 4-phenylpiperazines” (Eur J Med Chem, 2013).

Assay [1] deals with D(2) dopamine receptor (Homo sapiens, UniProt P14416). Description: Displacement of [3H]7-OH-DPAT from human D2S receptor high affinity site expressed in HEK293 cells. The format is cell-based.
The test system of assay [2] is Rattus norvegicus. The experiment in a line: Reduction in DOPAC level in Sprague-Dawley rat striatum at 100 umol/kg, sc measured after 1 hr relative to control. It is filed as functional.
The target of assay [3] is T1, Amine oxidase [flavin-containing] A (Rattus norvegicus, UniProt P21396).
T1 sequence (P21396 whole entry): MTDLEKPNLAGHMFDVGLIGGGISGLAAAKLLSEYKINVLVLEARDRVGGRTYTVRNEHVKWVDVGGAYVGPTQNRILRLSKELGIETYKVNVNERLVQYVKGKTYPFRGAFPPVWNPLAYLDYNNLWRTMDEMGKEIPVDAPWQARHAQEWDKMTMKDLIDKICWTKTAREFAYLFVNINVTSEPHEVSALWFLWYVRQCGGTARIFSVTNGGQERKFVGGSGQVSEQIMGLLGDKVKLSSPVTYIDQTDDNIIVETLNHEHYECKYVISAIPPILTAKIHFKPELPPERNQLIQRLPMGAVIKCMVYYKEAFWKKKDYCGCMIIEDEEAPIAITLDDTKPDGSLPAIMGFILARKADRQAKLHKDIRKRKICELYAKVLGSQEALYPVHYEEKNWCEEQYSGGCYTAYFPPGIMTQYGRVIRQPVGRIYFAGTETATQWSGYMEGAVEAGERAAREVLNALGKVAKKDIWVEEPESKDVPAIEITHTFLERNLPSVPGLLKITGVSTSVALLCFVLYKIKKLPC
The experiment in a line: Displacement of [3H]Ro 41-1049 from rat MAO-A receptor expressed in HEK293 cells. The format is cell-based.

Assay [4] deals with Rattus norvegicus. The experiment in a line: Reduction in DOPAC level in Sprague-Dawley rat striatum at 33 umol/kg, sc measured after 1 hr relative to control. The format is functional. Also on record: scale not given: the % may be the effect or the level left.
In assay [5] the test system is Rattus norvegicus. The experiment in a line: Reduction in DOPAC level in Sprague-Dawley rat striatum at 50 umol/kg, sc measured after 1 hr relative to control. The format is functional. Set-up: scale not given: the % may be the effect or the level left.

Sequence of D(2) dopamine receptor (P14416 whole entry): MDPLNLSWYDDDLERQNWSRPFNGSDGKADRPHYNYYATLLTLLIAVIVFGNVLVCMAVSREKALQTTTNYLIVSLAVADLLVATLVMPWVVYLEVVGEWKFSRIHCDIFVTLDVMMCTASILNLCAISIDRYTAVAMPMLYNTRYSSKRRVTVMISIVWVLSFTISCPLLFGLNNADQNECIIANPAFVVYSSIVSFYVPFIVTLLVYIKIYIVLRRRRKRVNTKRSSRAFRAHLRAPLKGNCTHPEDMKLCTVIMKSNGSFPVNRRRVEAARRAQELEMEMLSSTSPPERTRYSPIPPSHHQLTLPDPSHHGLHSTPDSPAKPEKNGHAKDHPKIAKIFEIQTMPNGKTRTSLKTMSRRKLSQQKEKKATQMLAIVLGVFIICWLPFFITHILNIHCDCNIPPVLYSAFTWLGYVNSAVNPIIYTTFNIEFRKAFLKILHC

In the case of `CCCN1CCN(c2ccc(OC)cc2)CC1`, the Ki in assay [1] worked out at 6.4 µM.
`CCCN1CCN(c2ccccc2)CC1` came in with a Ki in assay [1] of 0.47 µM. The “DOPAC level (% of control)” value in assay [2] is reported as 181%.
Take `CCCN1CCC(c2cccc(OC(C)(C)C)c2)CC1`: the “DOPAC level (% of control)” value in assay [2] is on record as 196%.
With `CCCN1CCC(c2cccc(OC(C)C)c2)CC1`, the “DOPAC level (% of control)” value in assay [2] worked out at 112%.
With `CCCN1CCN(c2ccccc2OC)CC1`, the Ki was 0.022 µM in assay [1], more than 583 µM in assay [3] (read-out: Ki) and more than 631 µM in assay [3] (read-out: pKi (converted)). The “DOPAC level (% of control)” value in assay [2] was determined as 370%.
On to `CCCN1CCN(c2ccccc2C)CC1`, for which the “DOPAC level (% of control)” value in assay [2] came to 327%.
In assay [1], `CCCN1CCC(c2ccc(Cl)cc2)CC1` registered a Ki of 0.9 µM.
As to `CCCN1CCC(c2cccc(S(=O)(=O)C(F)(F)F)c2)CC1`, the “DOPAC level (% of control)” value in assay [2] is reported as 258%.
As to `CCCN1CCN(c2cccc(S(C)(=O)=O)c2)CC1`, the Ki in assay [3] (read-out: Ki) came out at 126 µM.
For the compound `CCCN1CCC(c2cccc(OS(=O)(=O)C(F)(F)F)c2)CC1`, the “DOPAC level (% of control)” value in assay [2] amounted to 241%.
With `CCCN1CCN(c2ccccc2C#N)CC1`, the Activity in assay [4] turned out to be 313%.
With `CCCN1CCN(c2cccc(O)c2)CC1`, the Ki in assay [3] (read-out: Ki) was more than 583 µM; in assay [3] (read-out: pKi (converted)), more than 631 µM.
Compound `CCCN1CCC(c2ccc(OC)cc2)CC1` registered a Ki in assay [1] of 23 µM.
Take `CCCN1CCN(c2cccc(Cl)c2)CC1`: the “DOPAC level (% of control)” value in assay [2] is listed as 250%.
With `CCCN1CCN(c2cccc(OC)c2)CC1`, the Ki turned out to be 0.3 µM in assay [1] and 16 µM in assay [3] (read-out: Ki). In assay [2], the “DOPAC level (% of control)” value is reported as 255%.
In assay [5], `CCCN1CCN(c2cccc(OS(C)(=O)=O)c2)CC1` registered an Activity of 254%.
With `CCCN1CCC(c2ccccc2OC)CC1`, the Ki in assay [1] is 0.012 µM; in assay [3] (read-out: Ki), 2.4 µM. The Activity in assay [4] is 277%.
Turning to `CCCN1CCN(c2cccc(C(C)=O)c2)CC1`, in assay [2], the “DOPAC level (% of control)” value came to 221%.
As for `CCCN1CCC(c2cccc(N3CCOCC3)c2)CC1`, the “DOPAC level (% of control)” value in assay [2] is recorded as 105%.
On the same count and under the same terms, as for `CCCN1CCN(c2ccccc2O)CC1`, the figure is 270%.
Still for that read-out and setting: next, `CCCN1CCC(c2cccc(C#N)c2)CC1`: 275%; `CCCN1CCC(c2cccc(S(=O)(=O)C(C)C)c2)CC1`: 205%.
Take `CCCN1CCC(c2ccccc2)CC1`: the Ki in assay [1] is 0.17 µM. Moreover, in assay [2], the “DOPAC level (% of control)” value came out at 131%.
`CCCN1CCC(c2cccc(S(=O)(=O)C3CCCC3)c2)CC1`: the Ki in assay [1] is 3.8 µM; in assay [3] (read-out: Ki) it was more than 583 µM; in assay [3] (read-out: pKi (converted)), more than 631 µM. The “DOPAC level (% of control)” value in assay [2] stood at 170%.
`CCCN1CCN(c2cccc(C(F)(F)F)c2)CC1` had an Activity in assay [5] of 315%.
As for `CCCN1CCN(c2ccccc2Cl)CC1`, the “DOPAC level (% of control)” value in assay [2] amounted to 368%.
On to `CCCN1CCC(c2cccc(C)c2)CC1`, for which, in assay [2], the “DOPAC level (% of control)” value is 115%.
Turning to `CCCN1CCC(c2ccccc2C(F)(F)F)CC1`, the “DOPAC level (% of control)” value in assay [2] is on record as 254%.
Consider `CCCN1CCC(c2cccc(OC)c2)CC1`, for which the results for the Ki in assay [1] and in assay [3] (read-out: Ki) were 1.5 µM and 18 µM, respectively. The “DOPAC level (% of control)” value in assay [2] is 140%.
For `CCCN1CCN(c2ccccc2S(C)(=O)=O)CC1`, the results for the Ki in assay [1], in assay [3] (read-out: Ki) and in assay [3] (read-out: pKi (converted)) were 0.58 µM, more than 583 µM and more than 631 µM, respectively. Further, the “DOPAC level (% of control)” value in assay [2] is given as 283%.
Consider `CCCN1CCC(c2ccccc2OS(=O)(=O)C(F)(F)F)CC1`, for which the “DOPAC level (% of control)” value in assay [2] is 270%.
With `CCCN1CCN(c2cccc(OS(=O)(=O)C(F)(F)F)c2)CC1`, in assay [2], the “DOPAC level (% of control)” value is given as 285%.
Still for that read-out and setting: next, `CCCN1CCN(c2cccc(S(=O)(=O)c3ccccc3)c2)CC1`: 152%.
`CCCN1CCN(c2cccc(C#N)c2)CC1`: the results for the Ki in assay [1], in assay [3] (read-out: Ki) and in assay [3] (read-out: pKi (converted)) were 0.27 µM, more than 583 µM and more than 631 µM, respectively. In addition, the “DOPAC level (% of control)” value in assay [2] came out at 314%.
On to `CCCN1CCC(c2cccc(C(F)(F)F)c2)CC1`, for which the Ki is 0.18 µM in assay [1] and 128 µM in assay [3] (read-out: Ki). Moreover, the “DOPAC level (% of control)” value in assay [2] is recorded as 260%.
